# Where two headings read alike, the source gives them in different places.
# Legend:
# [1] = target: T1, HCV NS5B RdRp genotype 1b (Hepatitis C virus genotype 1b, UniProt Q9WMX2); assay: HCV NS5B RdRp enzyme assay (standard / modified); type: biochemical
# T1 construct: The protein was expressed with an 18 amino acid C-terminal truncation to enhance the solubility; made in house; host or cells: E. coli BL21(DE3), pET21a vector
# [2] = system: HCV replicon cells; assay: HCV replicon FRET / luciferase assay; type: cell-based, Hepatitis C virus
# [3] = HCV NS5B RdRp genotype 1b enzyme
# [4] = HCV replicon cells, FRET or luciferase activity
# [5] = HCV NS5B RdRp genotype 1b enzyme, read-out: IC50
# [6] = Hepatitis C virus, HCV replicon cells, FRET or luciferase activity, read-out: EC50
# T1 sequence (Q9WMX2 2420-2992): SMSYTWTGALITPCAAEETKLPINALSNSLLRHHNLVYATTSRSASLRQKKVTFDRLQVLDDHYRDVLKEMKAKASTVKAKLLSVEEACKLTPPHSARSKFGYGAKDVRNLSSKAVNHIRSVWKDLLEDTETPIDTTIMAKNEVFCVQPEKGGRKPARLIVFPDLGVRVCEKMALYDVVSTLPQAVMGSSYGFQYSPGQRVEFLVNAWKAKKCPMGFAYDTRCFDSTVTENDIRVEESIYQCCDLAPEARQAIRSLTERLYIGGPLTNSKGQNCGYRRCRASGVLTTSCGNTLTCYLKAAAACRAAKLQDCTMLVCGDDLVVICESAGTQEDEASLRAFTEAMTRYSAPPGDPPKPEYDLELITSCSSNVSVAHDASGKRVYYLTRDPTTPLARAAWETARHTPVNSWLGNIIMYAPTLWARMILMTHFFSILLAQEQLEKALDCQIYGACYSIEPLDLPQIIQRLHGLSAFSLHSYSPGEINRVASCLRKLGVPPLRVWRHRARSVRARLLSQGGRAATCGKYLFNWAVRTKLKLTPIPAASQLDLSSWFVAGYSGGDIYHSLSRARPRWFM
SMILES,"IC50 [1, 3]","EC50 [2, 4]",IC50 [1],EC50 ([2]; Hepatitis C virus),further results
CN1CC2CCC(C1)N2C(=O)C12CC1c1cc(OC(F)F)ccc1-c1c(C3CCCCC3)c3ccc(C(=O)NS(=O)(=O)N(C)C)cc3n1C2 (centres unmarked) [drawing 103],1 to 500 nM,1 to 500 nM,,,
COc1ccc2c(c1)C1CC1(C(=O)N1C3CCC1CNC3)Cn1c-2c(C2CCCCC2)c2ccc(C(=O)NS(=O)(=O)N(C)C)cc21 (centres unmarked) [drawing 34],,,1 to 500 nM,1 to 500 nM,
COc1ccc2c(c1)C1CC1(C(=O)N1C3CCC1CN(C)C3)Cn1c-2c(C2CCCCC2)c2ccc(C(=O)NS(N)(=O)=O)cc21 (centres unmarked) [drawing 63],1 to 500 nM,1 to 500 nM,,,
COc1ccc2c(c1)C1CC1(C(=O)N1C3CCC1CN(C(C)=O)C3)Cn1c-2c(C2CCCCC2)c2ccc(C(=O)NS(=O)(=O)N(C)C)cc21 (centres unmarked) [drawing 35],,,1 to 500 nM,1 to 500 nM,
CCS(=O)(=O)NC(=O)c1ccc2c(C3CCCCC3)c3n(c2c1)CC1(C(=O)N2C4CCC2CN(C)C4)CC1c1cc(OC)ccc1-3 (centres unmarked) [drawing 104],1 to 500 nM,1 to 500 nM,,,
COc1ccc2c(c1)[C@H]1C[C@@]1(C(=O)N1[C@@H]3CC[C@H]1CN(C)C3)Cn1c-2c(C2CCCCC2)c2ccc(C(=O)NS(=O)(=O)N(C)C)cc21,,,,,"IC50 [1, 5]: 1 to 500 nM; EC50 [2, 6]: 1 to 500 nM"
COc1ccc2c(c1)C1CC1(C(=O)N1C3CCC1CN(C)C3)Cn1c-2c(C2CCCCC2)c2ccc(C(=O)NS(=O)(=O)N3CCCCC3)cc21 (centres unmarked) [drawing 108],1 to 500 nM,1 to 500 nM,,,
COc1ccc2c(c1)C1CC1(C(=O)N1C3CCC1CN(C(=O)OCc1ccccc1)C3)Cn1c-2c(C2CCCCC2)c2ccc(C(=O)NS(=O)(=O)N(C)C)cc21 (centres unmarked),,,1 to 500 nM,1 to 500 nM,
COc1ccc2c(c1)[C@@H]1C[C@]1(C(=O)N1C3CCC1CN(C)C3)Cn1c-2c(C2CCCCC2)c2ccc(C(=O)NS(=O)(=O)N(C)C)cc21,,,,,"IC50 [1, 5]: 1 to 500 nM; EC50 [2, 6]: 1 to 500 nM"
COc1ccc2c(c1)[C@@H]1C[C@]1(C(=O)N1[C@@H]3CC[C@H]1CN(C(=O)N(C)C)C3)Cn1c-2c(C2CCCCC2)c2ccc(C(=O)NS(=O)(=O)N(C)C)cc21,,,1 to 500 nM,1 to 500 nM,
CCN(CC)S(=O)(=O)NC(=O)c1ccc2c(C3CCCCC3)c3n(c2c1)CC1(C(=O)N2C4CCC2CN(C)C4)CC1c1cc(OC)ccc1-3 (centres unmarked) [drawing 110],1 to 500 nM,1 to 500 nM,,,
COc1ccc2c(c1)C1CC1(C(=O)N1C3CCC1CN(C)C3)Cn1c-2c(C2CCCCC2)c2ccc(C(=O)NS(C)(=O)=O)cc21 (centres unmarked) [drawing 89],,,1 to 500 nM,1 to 500 nM,
COc1ccc2c(c1)C1CC1(C(=O)N1C3CCC1CN(C)C3)Cn1c-2c(C2CCCCC2)c2ccc(C(=O)NS(=O)(=O)CC(F)F)cc21 (centres unmarked),,,1 to 500 nM,1 to 500 nM,
CN1CC2CCC(C1)N2C(=O)C12CC1c1c(OC(F)(F)F)cccc1-c1c(C3CCCCC3)c3ccc(C(=O)O)cc3n1C2 (centres unmarked),,,1 to 500 nM,1 to 500 nM,
CNS(=O)(=O)NC(=O)c1ccc2c(C3CCCCC3)c3n(c2c1)CC1(C(=O)N2[C@@H]4CC[C@H]2CN(C)C4)CC1c1cc(OC)ccc1-3 (some centres unmarked) [drawing 56],1 to 500 nM,1 to 500 nM,,,
CNS(=O)(=O)NC(=O)c1ccc2c(C3CCCCC3)c3n(c2c1)CC1(C(=O)N2C4CCC2CN(C)C4)CC1c1cc(OC)ccc1-3 (centres unmarked) [drawing 47],1 to 500 nM,1 to 500 nM,,,

SMILES,"IC50 [1, 3]","EC50 [2, 4]",IC50 [1],EC50 ([2]; Hepatitis C virus),further results
COc1ccc2c(c1)C1CC1(C(=O)N1C3CCC1CN(C)C3)Cn1c-2c(C2CCCCC2)c2ccc(C(=O)NS(=O)(=O)C3CCCCC3)cc21 (centres unmarked),,,1 to 500 nM,1 to 500 nM,
CCC(CC)S(=O)(=O)NC(=O)c1ccc2c(C3CCCCC3)c3n(c2c1)CC1(C(=O)N2C4CCC2CN(C)C4)CC1c1cc(OC)ccc1-3 (centres unmarked),,,1 to 500 nM,> 110 nM,
COc1ccc2c(c1)C1CC1(C(=O)N1CC3CCC(C1)N3C(=O)OC(C)(C)C)Cn1c-2c(C2CCCCC2)c2ccc(C(=O)NS(=O)(=O)N(C)C)cc21 (centres unmarked),,,< 20 nM,1 to 500 nM,
CN1CC2CCC(C1)N2C(=O)C12CC1c1c(OC(F)(F)F)cccc1-c1c(C3CCCCC3)c3ccc(C(=O)NS(=O)(=O)N(C)C)cc3n1C2 (centres unmarked),,,1 to 500 nM,1 to 500 nM,
COc1ccc2c(c1)C1CC1(C(=O)N1C3CCC1CN(C)C3)Cn1c-2c(C2CCCCC2)c2ccc(C(=O)NS(=O)(=O)N(C)C(C)C)cc21 (centres unmarked) [drawing 98],,,1 to 500 nM,1 to 500 nM,
COc1cccc2c1C1CC1(C(=O)N1C3CCC1CN(C)C3)Cn1c-2c(C2CCCCC2)c2ccc(C(=O)NS(=O)(=O)N(C)C)cc21 (centres unmarked),,,1 to 500 nM,> 500 nM,
COc1ccc2c(c1)C1CC1(C(=O)N1C3CCC1CN(C)C3)Cn1c-2c(C2CCCCC2)c2ccc(C(=O)NS(=O)(=O)N3C[C@@H](C)O[C@@H](C)C3)cc21 (some centres unmarked) [drawing 107],1 to 500 nM,1 to 500 nM,,,
COc1ccc2c(c1)C1CC1(C(=O)N1C3CCC1CN(C)C3)Cn1c-2c(C2CCCCC2)c2ccc(C(=O)NS(=O)(=O)N3CCOCC3)cc21 (centres unmarked) [drawing 31],,,1 to 500 nM,1 to 500 nM,
COc1ccc2c(c1)C1CC1C(C(=O)N1C3CCC1CN(C)C3)n1c-2c(C2CCCCC2)c2ccc(C(=O)NS(=O)(=O)C3CC3)cc21 (centres unmarked) [drawing 113],1 to 500 nM,1 to 500 nM,,,
CCN(CC)C(=O)N1CC2CCC(C1)N2C(=O)C12CC1c1cc(OC)ccc1-c1c(C3CCCCC3)c3ccc(C(=O)NS(=O)(=O)C4CC4)cc3n1C2 (centres unmarked) [drawing 105],1 to 500 nM,1 to 500 nM,,,
COc1ccc2c(c1)C1CC1(C(=O)N1C3CCC1CN(C)C3)Cn1c-2c(C2CCCCC2)c2ccc(C(=O)NS(=O)(=O)N3CCCCC3)cc21 (centres unmarked) [drawing 95],,,1 to 500 nM,1 to 500 nM,
CN1CC2CCC(C1)N2C(=O)C12CC1c1cc(OC(F)F)ccc1-c1c(C3CCCCC3)c3ccc(C(=O)NS(=O)(=O)N(C)C)cc3n1C2 (centres unmarked) [drawing 90],,,1 to 500 nM,1 to 500 nM,
CCN1CC2CCC(C1)N2C(=O)C12CC1c1cc(OC)ccc1-c1c(C3CCCCC3)c3ccc(C(=O)NS(=O)(=O)N(C)C)cc3n1C2 (centres unmarked) [drawing 61],1 to 500 nM,1 to 500 nM,,,
COc1ccc2c(c1)C1CC1(C(=O)N1[C@@H]3CC[C@H]1CN(C(C)=O)C3)Cn1c-2c(C2CCCCC2)c2ccc(C(=O)NS(=O)(=O)N(C)C)cc21 (some centres unmarked),,,1 to 500 nM,1 to 500 nM,
COc1ccc2c(c1)C1CC1(C(=O)N1C3CCC1CN(CC1CC1)C3)Cn1c-2c(C2CCCCC2)c2ccc(C(=O)NS(=O)(=O)N(C)C)cc21 (centres unmarked) [drawing 65],1 to 500 nM,1 to 500 nM,,,

# From US20130171098A1, “Cyclopropyl Fused Indolobenzazepine HCV NS5B Inhibitors” (priority 2006, published 2013)
